The values below come from patent publication US20240150377A1, “MODULATORS OF CYSTIC FIBROSIS TRANSMEMBRANE CONDUCTANCE REGULATOR” (VERTEX PHARMACEUTICALS INCORPORATED, priority 2020, published 2024).

The target of test [1] is T1, CFTR (Homo sapiens, UniProt P13569, DEL508-508).
T1 construct: endogenous in cells; host or cells: primary human bronchial epithelial cells from CF subjects (F508del/MF-HBE), differentiated at air-liquid interface
Nature of the test: HBE assay: Ussing chamber assay of CFTR-mediated short-circuit currents. Conditions: for activation at 10 µM: read-out: HBE Activity at 10 μM (%); for Emax: read-out: HBE Max activity (%). Type of test: cell-based. A digest of the protocol: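 CFTR-mediated Isc (μA/cm²) equals the peak response to apical 20 μM forskolin minus the residual after a 20 μM each BPO/GlyH-101/CFTR inhibitor 172 cocktail, recorded in Ussing chambers at Vhold 0 mV, 37 °C, pH 7.4, with 30 μM apical amiloride. Cells were F508del/MF HBE cultures preincubated 18-24 h with corrector (concentration range or 10 μM) plus 1 μM ivacaftor in 20% human serum.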

Test [2] has as its target T1, CFTR. Nature of the test: HBE2 assay: Ussing chamber assay of CFTR-mediated short-circuit currents. Conditions: F508del/MF-HBE cells, with 44 nM potentiator, 18-24 hours, 20% human serum; for Emax: read-out: HBE2 Max activity (%). In kind it is cell-based. A digest of the protocol: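 Corrector activity read as CFTR-dependent ISC (μA/cm^2): peak forskolin current minus post-inhibitor steady state. Measured at 37 °C, voltage clamp at 0 mV, on F508del/MF-HBE epithelia grown >14 days air-liquid interface in Ussing chambers.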

Read-outs that look alike come from different tables or passages of the source.

T1 sequence (P13569 with tags, fused parts or gaps DEL508-508): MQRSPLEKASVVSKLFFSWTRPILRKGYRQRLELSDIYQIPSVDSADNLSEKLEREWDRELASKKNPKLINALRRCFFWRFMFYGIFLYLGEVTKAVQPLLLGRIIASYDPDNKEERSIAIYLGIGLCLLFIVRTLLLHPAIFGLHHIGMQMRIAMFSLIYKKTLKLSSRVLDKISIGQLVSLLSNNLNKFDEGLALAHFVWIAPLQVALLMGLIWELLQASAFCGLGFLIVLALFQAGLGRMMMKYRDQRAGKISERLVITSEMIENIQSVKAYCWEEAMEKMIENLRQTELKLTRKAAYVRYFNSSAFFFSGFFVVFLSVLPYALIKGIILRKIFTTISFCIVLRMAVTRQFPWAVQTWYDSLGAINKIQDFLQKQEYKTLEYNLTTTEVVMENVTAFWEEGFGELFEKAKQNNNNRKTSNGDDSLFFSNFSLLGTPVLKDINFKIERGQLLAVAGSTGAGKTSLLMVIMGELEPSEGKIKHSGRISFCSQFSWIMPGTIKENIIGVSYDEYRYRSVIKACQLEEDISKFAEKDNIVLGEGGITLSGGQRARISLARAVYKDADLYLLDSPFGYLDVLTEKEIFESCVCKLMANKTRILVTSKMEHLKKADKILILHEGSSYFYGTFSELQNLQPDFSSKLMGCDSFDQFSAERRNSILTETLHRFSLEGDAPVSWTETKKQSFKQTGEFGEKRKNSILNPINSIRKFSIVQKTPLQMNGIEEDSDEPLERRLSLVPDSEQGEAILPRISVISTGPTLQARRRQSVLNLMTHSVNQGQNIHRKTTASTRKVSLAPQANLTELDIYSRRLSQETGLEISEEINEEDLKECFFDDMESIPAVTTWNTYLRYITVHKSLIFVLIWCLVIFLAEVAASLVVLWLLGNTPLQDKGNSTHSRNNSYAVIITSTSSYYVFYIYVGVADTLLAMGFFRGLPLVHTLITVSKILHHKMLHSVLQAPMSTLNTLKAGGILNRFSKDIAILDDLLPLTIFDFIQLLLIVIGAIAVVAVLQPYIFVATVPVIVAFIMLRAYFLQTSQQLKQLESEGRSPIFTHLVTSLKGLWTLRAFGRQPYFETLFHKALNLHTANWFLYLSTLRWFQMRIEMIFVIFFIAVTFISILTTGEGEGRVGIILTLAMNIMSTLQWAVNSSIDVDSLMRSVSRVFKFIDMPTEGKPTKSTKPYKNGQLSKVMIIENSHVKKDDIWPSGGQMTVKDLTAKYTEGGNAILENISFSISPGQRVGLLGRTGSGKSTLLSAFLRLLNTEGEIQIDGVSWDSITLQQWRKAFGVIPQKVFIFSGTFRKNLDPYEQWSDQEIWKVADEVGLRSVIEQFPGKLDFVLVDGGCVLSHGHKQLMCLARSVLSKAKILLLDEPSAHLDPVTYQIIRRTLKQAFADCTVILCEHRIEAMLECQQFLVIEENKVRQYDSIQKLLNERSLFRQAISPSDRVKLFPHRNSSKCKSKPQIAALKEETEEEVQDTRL

As for `Cc1cccc(C)c1-c1cc2nc(n1)NS(=O)(=O)c1cccc(c1)C(=O)N(Cc1ccc3cc(C4CC4)n(C)c3n1)[C@H](CC(C)(C)C)CO2` [Compound 1304, (11R)-12-[(2-Cyclopropyl-1-methyl-pyrrolo[2,3-b]pyridin-6-yl)methyl]-6-(2,6-dimethylphenyl)-11-(2,2-dimethylpropyl)-2,2-dioxo-9-oxa-2λ^6-thia-3,5,12,19-tetrazatricyclo[12.3.1.14,8]nonadeca-1(18),4(19),5,7,14,16-hexaen-13-one], the activation at 10 µM in test [1] (HBE assay, 10 μM) is over 60%. The “HBE2 Activity at 3 μM (%)” value in test [2] (3 μM) is on record as “+++ (+++ is >60+)”.
On to `Cc1cccc(C)c1-c1cc2nc(n1)NS(=O)(=O)c1cccc(c1)C(=O)N(Cc1ccnc(N(C)C3CC4(CC4)C3)n1)[C@H](CC(C)(C)C)CO2` [Compound 1448], for which, in test [1] (HBE assay, 10 μM), the activation at 10 µM was over 60%. Further, in test [2], the EC50 was under 1000 nM and the Emax was over 60%.
On to `COCC1(CN(C)c2cncc(CN3C(=O)c4cccc(c4)S(=O)(=O)Nc4nc(cc(-c5c(C)cccc5C)n4)OC[C@H]3CC(C)(C)C)n2)CC1` [Compound 1492], for which the activation at 10 µM in test [1] (HBE assay, 10 μM) is over 60%. For the same compound, the EC50 in test [1] (HBE assay, read-out: HBE EC50) is under 1 µM. Besides, the Emax in test [1] (HBE assay) is over 60%. Moreover, the “HBE2 Activity at 3 μM (%)” value in test [2] (3 μM) is listed as “+++ (+++ is >60+)”.
Consider `COC[C@@H](C)N(C)c1cncc(CN2C(=O)c3cccc(c3)S(=O)(=O)Nc3nc(cc(-c4c(C)cccc4C)n3)OC[C@H]2CC(C)(C)C)n1` [Compound 1493], for which the EC50 in test [1] (HBE assay, read-out: HBE EC50) was under 1 µM. Moreover, the Emax in test [1] (HBE assay) was over 60%. For the same compound, the “HBE2 Activity at 3 μM (%)” value in test [2] (3 μM) is “+++ (+++ is >60+)”.
Turning to `Cc1cccc(C)c1-c1cc2nc(n1)NS(=O)(=O)c1cccc(c1)C(=O)N(Cc1cncc(N3CCC[C@H]3C3CC3)n1)[C@H](CC(C)(C)C)CO2` [Compound 1495], in test [1] (HBE EC50 (μM), HBE assay), the EC50 is under 1 µM. The Emax in test [1] was over 60%. Further, in test [2] (3 μM), the “HBE2 Activity at 3 μM (%)” value is recorded as “+++ (+++ is >60+)”.
For `CC[C@@H]1CCCN1c1cncc(CN2C(=O)c3cccc(c3)S(=O)(=O)Nc3nc(cc(-c4c(C)cccc4C)n3)OC[C@H]2CC(C)(C)C)n1` [Compound 1496], in test [1] (HBE assay, read-out: HBE EC50), the EC50 was under 1 µM. In addition, in test [1] (HBE assay), the Emax is over 60%. For the same compound, the “HBE2 Activity at 3 μM (%)” value in test [2] (3 μM) is on record as “+++ (+++ is >60+)”.
`Cc1cccc(C)c1-c1cc2nc(n1)NS(=O)(=O)c1cccc(c1)C(=O)N(Cc1cncc(N3CCCC[C@H]3C)n1)[C@H](CC(C)(C)C)CO2` [Compound 1506]: the activation at 10 µM in test [1] was over 60%. For the same compound, in test [2], the EC50 is under 1000 nM and the Emax is over 60%.
Consider `Cc1cccc(C)c1-c1cc2nc(n1)NS(=O)(=O)c1cccc(c1)C(=O)N(Cc1cncc(N(C)CC3CC3)n1)[C@H](CC(C)(C)C)CO2` [Compound 1507], for which the activation at 10 µM in test [1] (HBE assay, 10 μM) is over 60%. Besides, in test [2] (3 μM), the “HBE2 Activity at 3 μM (%)” value is “+++ (+++ is >60+)”.
For `Cc1cccc(C)c1-c1cc2nc(n1)NS(=O)(=O)c1cccc(c1)C(=O)N(Cc1cncc(N3CC[C@H]3C)n1)[C@H](CC(C)(C)C)CO2` [Compound 1512], the activation at 10 µM in test [1] is over 60%. In addition, in test [2], the EC50 was under 1000 nM and the Emax is over 60%.
On to `COC(=O)N(C)c1cnc(CN2C(=O)c3cccc(c3)S(=O)(=O)Nc3nc(cc(-c4c(C)cccc4C)n3)OC[C@H]2CC(C)(C)C)nc1` [Compound 1517], for which the activation at 10 µM in test [1] (HBE assay, 10 μM) was over 60%. In addition, the “HBE2 Activity at 3 μM (%)” value in test [2] (3 μM) is reported as “+++ (+++ is >60+)”.
Turning to `Cc1cccc(C)c1-c1cc2nc(n1)NS(=O)(=O)c1cccc(c1)C(=O)N(Cc1ncc(N(C)C(=O)OC(C)C)cn1)[C@H](CC(C)(C)C)CO2` [Compound 1518], the activation at 10 µM in test [1] (HBE assay, 10 μM) was over 60%. In test [2], the Emax was over 60%.
As for `Cc1cccc(C)c1-c1cc2nc(n1)NS(=O)(=O)c1cccc(c1)C(=O)N(Cc1cncc(N(C)CC(C)C)n1)[C@H](CC(C)(C)C)CO2` [Compound 1519], the activation at 10 µM in test [1] (HBE assay, 10 μM) was over 60%. In addition, in test [2], the EC50 is under 1000 nM and the Emax is over 60%.
For the compound `Cc1cccc(C)c1-c1cc2nc(n1)NS(=O)(=O)c1cccc(c1)C(=O)N(Cc1ncc(N3CC(C)(C)C3)cn1)[C@H](CC(C)(C)C(F)(F)F)CO2` [Compound 1520], in test [1] (HBE assay, 10 μM), the activation at 10 µM was over 60%. The “HBE2 Activity at 3 μM (%)” value in test [2] (3 μM) is listed as “+++ (+++ is >60+)”.
As for `CCCOc1cnc(CN2C(=O)c3cccc(c3)S(=O)(=O)Nc3nc(cc(-c4c(C)cccc4C)n3)OC[C@H]2CC2CCC2)nc1` [Compound 1522], the activation at 10 µM in test [1] (HBE assay, 10 μM) is over 60%. In test [2] (3 μM), the “HBE2 Activity at 3 μM (%)” value is given as “+++ (+++ is >60+)”. Moreover, in test [2], the EC50 is under 1000 nM and the Emax is over 60%.
`CCCOc1cnc(CN2C(=O)c3cccc(c3)S(=O)(=O)Nc3nc(cc(-c4c(C)cccc4C)n3)OC[C@H]2CC(C)C)nc1` [Compound 1523]: the activation at 10 µM in test [1] (HBE assay, 10 μM) was over 60%. The “HBE2 Activity at 3 μM (%)” value in test [2] (3 μM) was “+++ (+++ is >60+)”.
For the compound `CCC(C)Oc1cnc(CN2C(=O)c3cccc(c3)S(=O)(=O)Nc3nc(cc(-c4c(C)cccc4C)n3)OC[C@H]2CCC(C)C)nc1` (stereo partly shown) [Compound 1528], the activation at 10 µM in test [1] (HBE assay, 10 μM) is over 60%. In test [2] (3 μM), the “HBE2 Activity at 3 μM (%)” value is given as “+++ (+++ is >60+)”.
For the compound `Cc1cccc(C)c1-c1cc2nc(n1)NS(=O)(=O)c1cccc(c1)C(=O)N(Cc1ncc(N3CC(C)(C)C3)cn1)[C@H](CC1(C(F)(F)F)CC1)CO2` [Compound 1529], in test [1] (HBE assay, 10 μM), the activation at 10 µM was over 60%. For the same compound, the “HBE2 Activity at 3 μM (%)” value in test [2] (3 μM) is listed as “+++ (+++ is >60+)”.
The matching figures for `CC[C@H](C)Oc1cnc(CN2C(=O)c3cccc(c3)S(=O)(=O)Nc3nc(cc(-c4c(C)cccc4C)n3)OC[C@H]2CC2(C)CC2)nc1` [Compound 1546]: over 60% and “+++ (+++ is >60+)”.
The corresponding values for `CC[C@H](C)Oc1cnc(CN2C(=O)c3cccc(c3)S(=O)(=O)Nc3nc(cc(-c4c(C)cccc4C)n3)OC[C@H]2CCC(C)(C)C)nc1` [Compound 1547] are over 60% and “+++ (+++ is >60+)”.
Consider `Cc1cccc(C)c1-c1cc2nc(n1)NS(=O)(=O)c1cccc(c1)C(=O)N(Cc1cncc(N3[C@H](C)CC[C@H]3C)n1)[C@H](CCC(C)(C)C)CO2` [Compound 1947], for which the “HBE2 Activity at 3 μM (%)” value in test [2] (3 μM corrector) is reported as “+++ (+++ is >60+)”.
On to `Cc1cccc(C)c1-c1cc2nc(n1)NS(=O)(=O)c1cccc(c1)C(=O)N(Cc1cncc(N(C)C3CCCC3)n1)[C@H](COC(C)C)CO2` [Compound 1948], for which, in test [2] (3 μM corrector), the “HBE2 Activity at 3 μM (%)” value is recorded as “+++ (+++ is >60+)”.
As to `Cc1cccc(C)c1-c1cc2nc(n1)NS(=O)(=O)c1cccc(c1)C(=O)N(Cc1cncc(N(C)C3CC4(CC4)C3)n1)[C@H](COC(C)C)CO2` [Compound 1949], the “HBE2 Activity at 3 μM (%)” value in test [2] (3 μM corrector) is on record as “+++ (+++ is >60+)”.
Consider `Cc1cccc(C)c1-c1cc2nc(n1)NS(=O)(=O)c1cccc(c1)C(=O)N(Cc1cncc(N3[C@H](C)CC[C@@H]3C)n1)[C@H](COC(C)C)CO2` [Compound 1950], for which, in test [2] (3 μM corrector), the “HBE2 Activity at 3 μM (%)” value is reported as “+++ (+++ is >60+)”.
The same measure, in the same setting: the value for `Cc1cccc(C)c1-c1cc2nc(n1)NS(=O)(=O)c1cccc(c1)C(=O)N(Cc1ncc(OC3CCC3)cc1F)[C@H](COC(C)C)CO2` [Compound 1953] was “+++ (+++ is >60+)”; that for `Cc1cccc(C)c1-c1cc2nc(n1)NS(=O)(=O)c1cccc(c1)C(=O)N(Cc1cccc(N3CCC[C@H]3C)n1)[C@H](COC(C)C)CO2` [Compound 1954] was “+++ (+++ is >60+)”; that for `Cc1cccc(C)c1-c1cc2nc(n1)NS(=O)(=O)c1cccc(c1)C(=O)N(Cc1ncc(N3CCC(C)(C)C3)cn1)[C@H](COC(C)C)CO2` [Compound 1955] was “+++ (+++ is >60+)”.
Take `Cc1cccc(C)c1-c1cc2nc(n1)NS(=O)(=O)c1cccc(c1)C(=O)N(Cc1ncc(OC3CCC3)cn1)[C@H](COC(C)C)CO2` [Compound 1956]: the “HBE2 Activity at 3 μM (%)” value in test [2] (3 μM corrector) is “+++ (+++ is >60+)”.
The same measure, in the same setting: to `Cc1cccc(C)c1-c1cc2nc(n1)NS(=O)(=O)c1cccc(c1)C(=O)N(Cc1ncc(OC(C)C)cn1)[C@H](COC(C)C)CO2` [Compound 1957] belongs “+++ (+++ is >60+)”.

The term EC50 denotes the concentration at which the effect is half-maximal.
